Laboratory results taken from ChEMBL document CHEMBL4602729, “O-Alkyl Hydroxamates Display Potent and Selective Antileishmanial Activity” (J Med Chem, 2020).
Calls of active or inactive are those of the source. The rule behind the calls is not given here.

Assays:
Leishmania infantum [1] = assay: (§1) Antileishmanial activity against Leishmania infantum MON-1 promastigotes infected in BALB/c mouse assessed as reduction in liver parasite load at 104 mg Sbv/kg, ip administered daily for 14 days starting from 28 days post infection measured post last dose by Taqman qRT-PCR analysis relative to control; type: functional, organism-based; design: scale not given: the % may be the effect or the level left
Leishmania infantum [2] = assay: as §1, with “spleen” for “liver”; type: functional, organism-based; design: scale not given: the % may be the effect or the level left
Leishmania infantum [3] = assay: Antileishmanial activity against Leishmania infantum MON-1 intracellular amastigotes infected in Swiss mouse BMDM measured after 48 hrs by Giemsa staining based optical microscopic analysis; type: functional, organism-based
[4] = (§2) Cytotoxicity against Swiss mouse BMDM assessed as reduction in cell viability measured after 72 hrs by tryphan blue assay; type: cell-based; details: Swiss, BMDM
[5] = (§3) Cytotoxicity against mouse L929 cells assessed as reduction in cell viability measured after 72 hrs by tryphan blue assay; type: cell-based; details: L929 cells
Leishmania infantum [6] = assay: Antileishmanial activity against Leishmania infantum MON-1 promastigotes assessed as reduction in parasite viability at 100 uM measured after 48 hrs by MTT assay; type: functional, organism-based
[7] = Selectivity index, ratio of CC50 for mouse L929 cells to IC50 for Leishmania major MON-4 intracellular amastigotes; type: toxicity, cell-based
[8] = Selectivity index, ratio of CC50 for mouse L929 cells to IC50 for Leishmania tropica MON-102 intracellular amastigotes; type: toxicity, cell-based
Leishmania major = assay: Antileishmanial activity against Leishmania major MON-4 intracellular amastigotes; type: functional, organism-based
[9] = Selectivity index, ratio of CC50 for mouse L929 cells to IC50 for Leishmania infantum MON-1 intracellular amastigotes infected in Swiss mouse BMDM; type: toxicity, cell-based
[10] = Selectivity index, ratio of CC50 for mouse L929 cells to IC50 for Leishmania donovani MON-2 intracellular amastigotes; type: toxicity, cell-based
Leishmania donovani = assay: Antileishmanial activity against Leishmania donovani MON-2 intracellular amastigotes; type: functional, organism-based
Leishmania tropica = assay: Antileishmanial activity against Leishmania tropica MON-102 intracellular amastigotes; type: functional, organism-based
[11] = Toxicity in BALB/c mouse infected with Leishmania infantum MON-1 promastigotes assessed as change in AST level at 104 mg Sbv/kg, ip administered daily for 14 days starting from 28 days post infection using PLGA nanoparticle incorporated compound; type: organism-based; details: in vivo
L929 = assay: as §3; type: cell-based; details: l929, 72 h
BMDM = assay: as §2; type: cell-based; details: bmdm, 72 h
[12] = Leishmania infantum, MON-1, BMDM, 48 h

MEGLUMINE ANTIMONATE [listing 1 of 2 here]
Activity (Leishmania infantum [1]): 83%
Activity (Leishmania infantum [2]): 33%

O=C(CCCCCCC(=O)Nc1ccccc1)NOC(c1ccccc1)(c1ccccc1)c1ccccc1Cl
IC50 (Leishmania infantum [3]; [12]): 74.9 µM
CC50 at 72 h [4]: > 100 µM

O=C(CCCCCCC(=O)Nc1ccccc1)NOCc1ccccc1
CC50 at 72 h [5]: > 100 µM
IC50 (Leishmania infantum [3]; [12]): 0.44 µM
CC50 at 72 h [4]: > 100 µM
Activity (Leishmania infantum [6]): inactive

N=C(N)c1ccc(OCCCCCOc2ccc(C(=N)N)cc2)cc1
selectivity ratio ([7]; read-out: Ratio CC50/IC50): 6
selectivity ratio ([8]; read-out: Ratio CC50/IC50): 10
IC50 (Leishmania major; Leishmania major, MON-4): 0.96 µM
IC50 (Leishmania infantum [3]; [12]): 1.5 µM
selectivity ratio ([9]; read-out: Ratio CC50/IC50): 4
CC50 at 72 h [4]: 5 to 20 µM
selectivity ratio ([10]; read-out: Ratio CC50/IC50): 7
IC50 (Leishmania donovani; Leishmania donovani, MON-2): 0.88 µM
IC50 (Leishmania tropica; Leishmania tropica, MON-102): 0.62 µM

MEGLUMINE ANTIMONATE [listing 2 of 2 here]
Ratio CC50/IC50 [7]: 3
Activity [11]: Toxic
Ratio CC50/IC50 [8]: 2
CC50 (L929): 273 µM
IC50 (Leishmania major): 101 µM
IC50 (Leishmania infantum [3]): 144 µM
Ratio CC50/IC50 [9]: 2
CC50 (BMDM): 200 to 500 µM
Ratio CC50/IC50 [10]: 3
IC50 (Leishmania donovani): 96.4 µM
IC50 (Leishmania tropica): 123 µM

O=C(CCCCCCC(=O)Nc1ccccc1)NO [VORINOSTAT]
CC50 at 72 h [4]: 5 to 20 µM

COc1ccc(C(ONC(=O)CCCCCCC(=O)Nc2ccccc2)(c2ccccc2)c2ccc(OC)cc2)cc1
CC50 at 72 h [5]: < 1 µM
CC50 at 72 h [4]: < 1 µM

CCCCc1ccc(C(=O)NCC(=O)NOC(c2ccccc2)(c2ccccc2)c2ccccc2)cc1
CC50 at 72 h [5]: > 100 µM
IC50 (Leishmania infantum [3]; [12]): 1.05 µM
CC50 at 72 h [4]: > 100 µM
Activity (Leishmania infantum [6]): inactive

O=C(CCCCCCN1C(=O)c2ccc(C#Cc3ccccc3)cc2S1(=O)=O)NOC(c1ccccc1)(c1ccccc1)c1ccccc1
IC50 (Leishmania infantum [3]; [12]): 3.67 µM
CC50 at 72 h [4]: > 100 µM

Cc1ccc(C(ONC(=O)CCCCCCC(=O)Nc2ccccc2)(c2ccccc2)c2ccccc2)cc1
IC50 (Leishmania infantum [3]; [12]): 69.1 µM
CC50 at 72 h [4]: < 100 µM
